Key:
[1] = system: in vitro RNA transcripts (IVT); experiment: Functionalisation of in vitro RNA transcripts, Cy3 and RNA assay, DoL (Degree of Labelling); type: biochemical, human
Method: The in vitro transcripts are generated in the same way as described in example 8. In this example, we have used four concentrations of functionalisation molecule Cy3 IA Me (13) in order to determine the most appropriate concentration for detection of the most sensitive functionalised IVTs.
6 μg of in vitro transcripts are taken up in a total volume of 20 μL of a 10 mM solution of Zn(OAc)2 pH 6.5. The solution is incubated for 15 min at 70° C. in order to partially fragment the RNA until a majority of fragments are obtained which are of a size between 25 and 200 bases. After this incubation, the solution is immediately put into ice.
11 μL of the transcript solution is mixed with 4 μL of a 500 mM solution of NaHCO3 pH 8-8.5, and with 5 μL of a 120, 240, 360 or 480 mM solution of Cy3 IA Me (13) in DMSO, to obtain 30, 60, 90 or 120 mM solutions of functionalisation reagent, respectively. These solutions are incubated at 65° C. for one hour.
The excess of functionalisation reagent as well as that of the different salts are eliminated by isopropanol precipitation then by acetone precipitation. To do this, 6 μL of 3M sodium acetate (i.e. 30% by volume) and 14 μL of isopropanol (i.e. 70% by volume) are added to the functionalisation solution. Vortex stirring is performed and centrifuging is performed for 30 mins at 14,000 rpm (20,800 g) at 4° C. The supernatant is eliminated and then the pellet is rinsed with 50 μL of 70% ethanol. Centrifuging is carried out again for 15 mins at 14,000 rpm (20,800 g) at 4° C., and the supernatant is eliminated.
280 μL of water, 18 μL of 3M LiClO4 and 900 μL of acetone are added to the pellet. Vortex stirring is performed, centrifuging is performed and the supernatant is eliminated. Next, 280 μL of water, 18 μL of 3M LiClO4 and 900 μL of acetone are added to the pellet. Vortex stirring is performed, centrifuging is performed and the supernatant is eliminated. The pellet is rinsed with 50 μL of 70% ethanol and then centrifuging is carried out for 15 mins at 14,000 rpm (20,800 g) at 4° C. The supernatant is eliminated, and the pellet is dried under vacuum with the rotary evaporator before the pellet is taken up in 20 μL of water (i.e. [in vitro transcripts]theoretical=[…]).
In order to determine the quantity of functionalised in vitro transcripts recovered after these different treatments, 1.2 μl of each end solution are assayed by UV spectrophotometry at 260 nm (Nanodrop 100, Thermo Scientific Waltham, USA). An assay is also carried out at 550 nm in order to learn the Cy3 functionalisation rate of the in vitro transcripts (% of Cy3 molecules per 100 nucleosides). This value is also known under the name DoL (Degree of Labelling) and is calculated with the following equation: DoL (in %)=100×(340×[Cy3])/(1000×[RNA]). […]

MAQC RNA = experiment: DoL of MAQC total RNA after zinc acetate cleaving and alkaline phosphatase treatment; type: biochemical, human; settings: compound 15 mM
Method: The panel of RNA strands is MAQC RNA (Stratagene Reference: #74000). This total RNA (ribosomal and messenger) is directly extracted from ten lines of human cells of different origin: brain, breast, B Lymphocyte, uterine cervix, liver, liposarcoma, macrophage, skin, testicle, Lymphocyte T.
The functionalisation protocol is the same as that described in example 9, i.e.: • 12 μg of MAQC0 RNA is incubated, or not, with a Zinc acetate solution. • The mixture is precipitated with isopropanol. • 7 units of alkaline phosphatase (P7923-2KU Sigma-Aldrich) are added to the mixture, […] There is then added to the mixture the molecule Cy3-IA Me 13 at 15 mM in a NaHCO3 buffer (100 mM/DMSO 75/25 pH 8-8.5), with a total volume of 80 μl. The mixture is incubated for 1 h at 65° C. • The mixture is precipitated once again with isopropanol, then twice with acetone, before the DoL is measured as described in example 9.

In the case of CCN1/C(=C\C=C\C2=[N+](CCCCCC(=O)Nc3ccc4c(c3)c(=O)oc(=O)n4C)c3ccc(S(=O)(=O)[O-])cc3C2(C)C)C(C)(C)c2cc(S(=O)(=O)[O-])ccc21.[K+] [Cy3 IA Me 13, 1-methyl 5-Cy3-isatoic anhydride], the DoL ([1]; 30 mM compound in the solution) is reported as 0.8%, the DoL ([1]; 60 mM compound in the solution) is reported as 1.7% and the DoL ([1]; 90 mM compound in the solution) is reported as 2%. The DoL ([1]; 120 mM compound in the solution) was 2.7%, the solubility (Solubility in water) was greater than 100 mM and the DoL (MAQC RNA; 10 mM Zn(OAc)2 0 mins, AP hydrolysis 0) was 1.7%. It also gave a DoL (MAQC RNA; 10 mM Zn(OAc)2 0 mins, AP hydrolysis 4 h) of 1.5%, a DoL (MAQC RNA; 10 mM Zn(OAc)2 15 mins, AP hydrolysis 0) of 1.7% and a DoL (MAQC RNA; 10 mM Zn(OAc)2 15 mins, AP hydrolysis 4 h) of 2.5%.

From US20130253179A1, “Functionalization Processes and Reactants Used in Such Processes Using an Isatoic Anhydride or a Derivative Thereof, Biological Molecules Thus Treated and Kits” (priority 2010, published 2013)
